For series [1], the system named is Plasmodium falciparum. The experiment in a line: Binding affinity to Plasmodium falciparum apo-DHFR N51I/C59R/S108N/I164L quadruple mutant assessed as change in melting temperature by […] analysis. (In general: SPR reads the build-up and loss of mass on a sensor chip optically.)
In series [2] the target is Bifunctional dihydrofolate reductase-thymidylate synthase (Plasmodium falciparum K1) (UniProt P13922). Briefly: Binding affinity to Plasmodium falciparum DHFR assessed as binding constant (kon) by surface plasmon resonance analysis.
Sequence of Bifunctional dihydrofolate reductase-thymidylate synthase (Plasmodium falciparum K1) (P13922 whole entry, looked up): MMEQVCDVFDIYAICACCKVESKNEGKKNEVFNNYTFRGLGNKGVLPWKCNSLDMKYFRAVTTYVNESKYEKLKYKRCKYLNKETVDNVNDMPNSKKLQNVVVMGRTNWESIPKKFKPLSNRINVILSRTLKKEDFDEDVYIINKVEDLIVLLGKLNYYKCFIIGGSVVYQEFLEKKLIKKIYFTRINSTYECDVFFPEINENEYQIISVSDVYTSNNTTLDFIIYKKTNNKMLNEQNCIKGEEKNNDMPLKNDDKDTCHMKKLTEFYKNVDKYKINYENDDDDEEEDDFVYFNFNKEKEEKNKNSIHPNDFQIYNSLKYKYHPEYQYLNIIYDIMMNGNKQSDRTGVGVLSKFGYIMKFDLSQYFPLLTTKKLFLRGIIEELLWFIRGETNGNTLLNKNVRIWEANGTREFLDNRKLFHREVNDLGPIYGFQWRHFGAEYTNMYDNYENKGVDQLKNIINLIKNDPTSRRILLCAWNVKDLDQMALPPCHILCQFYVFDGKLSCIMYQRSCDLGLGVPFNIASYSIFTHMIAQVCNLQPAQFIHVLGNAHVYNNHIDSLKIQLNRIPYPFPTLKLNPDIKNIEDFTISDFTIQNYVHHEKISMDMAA
Series [3] shares this target. Briefly: Binding affinity to Plasmodium falciparum DHFR assessed as binding constant (koff) by surface plasmon resonance analysis.
Series [4] deals with Plasmodium falciparum. The experiment in a line: Inhibition of Plasmodium falciparum DHFR N51I/C59R/S108N/I164L quadruple mutant using DHF as substrate at 500 uM in presence of NADPH by UV-Vis spectrometry analysis relative to control.
In series [5] the target is T1, Dihydrofolate reductase (Homo sapiens) (UniProt P00374).
T1 sequence (whole entry): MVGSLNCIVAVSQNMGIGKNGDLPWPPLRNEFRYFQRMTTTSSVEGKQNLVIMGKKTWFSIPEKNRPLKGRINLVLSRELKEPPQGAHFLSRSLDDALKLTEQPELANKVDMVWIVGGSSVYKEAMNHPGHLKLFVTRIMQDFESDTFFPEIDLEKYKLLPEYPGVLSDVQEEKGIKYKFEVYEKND
The experiment in a line: Inhibition of human DHFR at 500 uM by UV-Vis spectrometry analysis.

The target in series [6] is Bifunctional dihydrofolate reductase-thymidylate synthase (Plasmodium falciparum K1) (UniProt P13922). Briefly: Inhibition of wild type Plasmodium falciparum DHFR using DHF as substrate at 500 uM in presence of NADPH by UV-Vis spectrometry analysis.
The test system of series [7] is Plasmodium falciparum. Briefly: Binding affinity to Plasmodium falciparum DHFR N51I/C59R/S108N/I164L quadruple mutant assessed as change in melting temperature in presence of NADPH by […] analysis.
The target of series [8] is Bifunctional dihydrofolate reductase-thymidylate synthase (Plasmodium falciparum K1) (UniProt P13922). The experiment in a line: Inhibition of wild type Plasmodium falciparum DHFR using DHF as substrate at 500 uM in presence of NADPH by UV-Vis spectrometry analysis relative to control.
Series [9] is described as follows: Kinetic solubility of the compound at pH 4.5 at 200 uM incubated for 2 hrs under shaking condition by HPLC analysis. The format is physicochemical. Particulars: buffer, read-out: Kinetic_solubility.
Series [10] is described as follows: Metabolic stability in human liver microsomes assessed as intrinsic clearance measured upto 60 mins in presence of NADPH by LC-MS/MS analysis. The settings on record: read-out: CLH. The format is ADME, Microsome. On the technique in general: Microsomes from liver hold many membrane-bound enzymes, among them those of drug oxidation.
Series [11] can be described thus: Metabolic stability in rat liver microsomes assessed as intrinsic clearance measured upto 60 mins in presence of NADPH by LC-MS/MS analysis. The format is ADME, Microsome. The settings on record: read-out: CLH.
Series [12] in a line: Cytotoxicity against African green monkey Vero cells assessed as cell growth inhibition incubated for 72 hrs by sulforhodamine B assay. The format is toxicity, cell-based, Chlorocebus sabaeus. Background: In SRB staining, fixed cells bind dye roughly in proportion to their protein.
Series [13] is described as follows: Kinetic solubility of the compound at pH 6.5 at 200 uM incubated for 2 hrs under shaking condition by HPLC analysis. The format is physicochemical. The settings on record: buffer, read-out: Kinetic_solubility.
Series [14] can be described thus: Kinetic solubility of the compound at pH 7.4 at 200 uM incubated for 2 hrs under shaking condition by HPLC analysis. The format is physicochemical. The settings on record: buffer, read-out: Kinetic_solubility.
Series [15] in a line: Kinetic solubility of the compound at pH 2.0 at 200 uM incubated for 2 hrs under shaking condition by HPLC analysis. The format is physicochemical. The settings on record: buffer, read-out: Kinetic_solubility.
Series [16] in a line: Distribution coefficient, log D of compound in n-octanol and saturated PBS at pH 7.4 at 100 uM incubated for 2 hrs under shaking condition by HPLC analysis. The format is physicochemical.
Series [17] can be described thus: Inhibition of Plasmodium falciparum DHFR N51I/C59R/S108N/I164L quadruple mutant using DHF as substrate assessed as inhibition constant in presence of NADPH by UV-Vis spectrometry analysis.
The target of another series is T2, Dihydrofolate reductase (Homo sapiens, UniProt P00374).
T2 sequence (P00374 whole entry): T1 sequence (whole entry)
Briefly: Inhibition of human DHFR using DHF as substrate assessed as inhibition constant in presence of NADPH by UV-Vis spectrometry analysis.

For series [18], the system named is Plasmodium falciparum. The experiment in a line: Antiplasmodial activity against PYR-sensitive Plasmodium falciparum TM4/8.2 encoding WT DHFR infected in human erythrocytes assessed as inhibition of parasite growth by [3H]-hypoxanthine incorporation assay. The format is functional, organism-based. Particulars: TM4/8.2, Erythrocyte.
Series [19] deals with Plasmodium falciparum. Briefly: Antiplasmodial activity against PYR-resistant Plasmodium falciparum V1/S encoding QM DHFR infected in human erythrocytes assessed as inhibition of parasite growth by [3H]-hypoxanthine incorporation assay. The format is functional, organism-based. Particulars: Erythrocyte.
Series [20] in a line: Half life in human. The format is ADME.
For series [21], the system named is Plasmodium falciparum. The experiment in a line: Inhibition of Plasmodium falciparum DHFR N51I/C59R/S108N/I164L quadruple mutant assessed as fold change in inhibition in presence of 2,4-diamino-6-ethylpyrimidin-5-ol.
Series [22] has as its target Bifunctional dihydrofolate reductase-thymidylate synthase (Plasmodium falciparum K1) (UniProt P13922). The experiment in a line: Binding affinity to Plasmodium falciparum DHFR assessed as faster binding and release kinetics by surface plasmon resonance analysis.

≈ marks a conversion by molar mass, not a printed value. Calls of active or inactive are those of the source. The rule behind the calls is not given here.

This is an account of results in ChEMBL document CHEMBL5356935, “Discovery of rigid biphenyl Plasmodium falciparum DHFR inhibitors using a fragment linking strategy” (RSC Med Chem, 2023).

For `O=C(O)c1ccc(-c2ccccc2F)o1`, in the series with Plasmodium falciparum [1], the ΔTm (usually the change in melting temperature against a reference sample) was -1.8 °C. The K in series [2] was found to be 7.61 M⁻¹ s⁻¹; in series [3] it was 0.001 s⁻¹. The inhibition (commonly the relative decrease from the control value, in per cent) in the series on Plasmodium falciparum [4] was found to be 2.6%. The inhibition entry in series [5] and in series [6] was “inactive” in each case.

As to `Cc1ccc(-c2ccc(C(=O)O)cc2)o1`, the ΔTm in the series with Plasmodium falciparum [7] was -2.3 °C. Also, the values for the K in series [2] and in series [3] were 25.4 M⁻¹ s⁻¹ and 0.019 s⁻¹, respectively. Further, the values for the inhibition (in series [8]; in the series on Plasmodium falciparum [4]) were 27.4% and 23.1%, respectively. The inhibition result in series [5] was “inactive”.

Regarding `CCc1nc(N)nc(N)c1OCCCOc1ccccc1CCC(=O)O`, the solubility kinetic at 2 h, 200 µM in series [9] stood at 200 µM (≈ 72 µg/mL); in series [13], 204 µM (≈ 73.5 µg/mL); in [14], 201 µM (≈ 72.5 µg/mL); in series [15] it was 207 µM (≈ 74.6 µg/mL). Besides, the microsomal CLint in series [10] and in [11] was under 3 µL/min/mg each time. In [12], the IC50 (commonly the midpoint of a concentration-inhibition curve) at 72 h was over 100000 nM. For the same compound, in series [16], the logD (commonly lipophilicity at a set pH, counting ionised and neutral species) at 2 h, 100 µM was -0.095. Besides, the Ki (in general, a dissociation constant, usually derived from enzyme kinetics or from competition with a known ligand) in series [17] turned out to be 0.54 nM; on Dihydrofolate reductase, 17.4 nM. The IC50 in the series with Plasmodium falciparum [18] is 5 nM; in the series with Plasmodium falciparum [19], 56 nM. The half-life (commonly the time in which the quantity being followed falls by half) in series [20] was under 20 h.

On to `O=C(O)c1ccc(-c2ccccc2)cn1`, for which the ΔTm in the series with Plasmodium falciparum [1] is -1.2 °C. In addition, the K is 24.5 M⁻¹ s⁻¹ in [2] and 0.037 s⁻¹ in series [3]. Further, the inhibition in the series on Plasmodium falciparum [4] was found to be 7%. The inhibition entry in series [5] and in series [6] was “inactive” throughout.

For `O=C(O)c1cccc(-c2ccncc2)c1`, the ΔTm in the series with Plasmodium falciparum [7] amounted to 0.8 °C. The K in [2] was 6.41 M⁻¹ s⁻¹. Also, the inhibition in the series on Plasmodium falciparum [4] stood at 19.5%. In addition, the inhibition entry in series [5] and in [6] was “inactive” in each case.

Consider `COc1cccc(-c2ccc(C(=O)O)cc2)c1`, for which the inhibition in [8] was determined as 37.8%; in the series with Plasmodium falciparum [4], 45.8%. Also, in series [5], the inhibition result is “inactive”. Also, in the series with Plasmodium falciparum [21], the fold change (FC) amounted to 2. Besides, the result in series [22] was Active.
